Assay results reported in patent publication US6537803B1, “Amino acid transporters and uses” (Oregon Health Sciences University, priority 1993, dated 2003).
Like-named read-outs stand apart in the source and are kept apart here.

Columns and labels:
Assay type in all cases: cell-based
human EAAT1 = target: T1, human EAAT1 (Homo sapiens, UniProt P43003); experiment: inhibition of [3H]-L-glutamate uptake in COS-7 cells expressing EAAT1; details: for inhibition of glutamate uptake (in words), EAAT1: COS cell culture
T1 construct: expressed in transfected cells; host or cells: COS-7 cells, pCMV5 construct, DEAE-dextran transient transfection
T1 sequence (P43003 whole entry): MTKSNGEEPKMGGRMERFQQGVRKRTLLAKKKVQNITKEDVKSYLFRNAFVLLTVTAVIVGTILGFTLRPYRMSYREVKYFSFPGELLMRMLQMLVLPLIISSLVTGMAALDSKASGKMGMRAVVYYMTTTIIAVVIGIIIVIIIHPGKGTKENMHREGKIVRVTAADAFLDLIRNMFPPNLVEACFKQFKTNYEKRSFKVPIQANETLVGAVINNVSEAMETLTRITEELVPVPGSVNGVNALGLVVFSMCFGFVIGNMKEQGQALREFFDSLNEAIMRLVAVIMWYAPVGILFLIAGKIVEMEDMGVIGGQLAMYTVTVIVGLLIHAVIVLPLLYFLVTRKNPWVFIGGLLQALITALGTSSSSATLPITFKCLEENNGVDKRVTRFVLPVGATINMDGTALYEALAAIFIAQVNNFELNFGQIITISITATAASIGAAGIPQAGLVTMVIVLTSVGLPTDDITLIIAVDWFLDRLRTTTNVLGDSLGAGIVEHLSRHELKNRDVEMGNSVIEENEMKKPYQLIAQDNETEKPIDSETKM
Description: (§1) DNA fragments comprising the coding sequences of the novel glutamate transporter genes of the invention were excised from the POTV constructs described in Example 3 and subcloned into the mammalian expression plasmid pCMV5 (Anderson et al., 1989, J. Biol. Chem. 264: 8222-8229). These mammalian expression constructs were used for transient expression assays of glutamate transporter protein function after transfection of each of these constructs into COS-7 cells (Gluzman, 1981, Cell 23: 175-182).
(§2) Each of the pCMV5 constructs corresponding to EAAT1, EAAT2 and EAAT3 were introduced into COS-7 cells by DEAE-dextran facilitated transfection (see Sambrook et al., ibid.). Two day following transfection, the transfected cells were washed three times in phosphate-buffered saline (PBS) and then incubated with a mixture of radiolabeled amino acid ([^3H]-L-glutamate or [^3H]-D-aspartate; Dupont-NEN) and non-radiolabeled amino acid for 10 min. After incubation, the cells were washed three times with ice-cold PBS, solubilized with a solution of 0.1% sodium dodecyl sulfate (SDS) and the amount of radioactivity associated with the cells determined using standard liquid scintillation counting methods.
(§3) COS-7 cell cultures transformed with pCMVS-human glutamate transporter constructs as described in Example 4 were used to characterize the pharmacological properties of each of these transporter proteins relative to a variety of known glutamate transporter inhibitors. These assays were performed essentially as described in Example 4, with the exception that varying amounts of each of a number of known inhibitor compounds were included in the incubations.
(§4) In these experiments, uptake of 1 μM of […] was determined in the presence of the indicated amounts of each of the inhibitors.

human EAAT2 = target: T2, human EAAT2 (Homo sapiens, UniProt P43004); experiment: inhibition of [3H]-L-glutamate uptake in COS-7 cells expressing EAAT2; details: for inhibition of glutamate uptake (in words), EAAT2: COS cell culture
T2 construct: expressed in transfected cells; host or cells: COS-7 cells, pCMV5 construct, DEAE-dextran transient transfection
T2 sequence (P43004 whole entry): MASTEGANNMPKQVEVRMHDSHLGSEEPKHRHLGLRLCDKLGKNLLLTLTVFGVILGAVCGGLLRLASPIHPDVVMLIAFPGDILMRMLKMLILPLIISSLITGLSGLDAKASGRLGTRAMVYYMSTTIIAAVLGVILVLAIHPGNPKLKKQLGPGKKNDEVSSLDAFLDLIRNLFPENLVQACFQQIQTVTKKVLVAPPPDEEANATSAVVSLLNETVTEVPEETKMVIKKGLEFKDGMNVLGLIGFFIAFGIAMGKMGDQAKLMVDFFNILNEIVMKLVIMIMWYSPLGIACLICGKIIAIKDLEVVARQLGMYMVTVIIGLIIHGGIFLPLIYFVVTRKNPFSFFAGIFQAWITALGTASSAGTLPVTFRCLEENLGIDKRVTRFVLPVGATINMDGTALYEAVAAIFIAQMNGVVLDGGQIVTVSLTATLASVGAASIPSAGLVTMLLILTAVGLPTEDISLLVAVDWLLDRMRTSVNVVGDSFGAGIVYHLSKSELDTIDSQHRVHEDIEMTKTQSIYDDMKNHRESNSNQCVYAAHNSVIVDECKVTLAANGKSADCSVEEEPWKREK
Description: as §1, §2, §3, §4

human EAAT3 = target: T3, human EAAT3 (Homo sapiens, UniProt P43005); experiment: inhibition of [3H]-L-glutamate uptake in COS-7 cells expressing EAAT3; details: for inhibition of glutamate uptake (in words), EAAT3: COS cell culture
T3 construct: isolation of Clone GT11B containing a full-length open reading frame encoding EAAT3; expressed in transfected cells; host or cells: COS-7 cells, pCMV5 construct, DEAE-dextran transient transfection
T3 sequence (P43005 1-524): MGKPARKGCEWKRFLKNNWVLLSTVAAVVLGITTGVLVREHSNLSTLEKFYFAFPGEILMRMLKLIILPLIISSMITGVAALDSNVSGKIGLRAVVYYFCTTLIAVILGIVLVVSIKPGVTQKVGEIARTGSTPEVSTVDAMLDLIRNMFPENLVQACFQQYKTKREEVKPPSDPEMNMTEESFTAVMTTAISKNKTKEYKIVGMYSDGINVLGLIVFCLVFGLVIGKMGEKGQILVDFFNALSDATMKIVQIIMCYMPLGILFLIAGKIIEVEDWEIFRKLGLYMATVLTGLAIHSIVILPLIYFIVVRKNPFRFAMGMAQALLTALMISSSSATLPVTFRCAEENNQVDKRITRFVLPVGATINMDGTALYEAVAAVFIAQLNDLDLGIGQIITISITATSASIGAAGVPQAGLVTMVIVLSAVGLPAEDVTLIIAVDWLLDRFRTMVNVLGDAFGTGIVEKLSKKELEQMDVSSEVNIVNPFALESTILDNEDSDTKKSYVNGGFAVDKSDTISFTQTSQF
Description: as §1, §2, §3, §4

[1] = target: T4, human ASCT1 neutral amino acid transporter (Homo sapiens, UniProt P43007); experiment: amino acid-induced inward current in voltage-clamped ASCT1-injected Xenopus oocytes
T4 construct: expressed in transfected cells; host or cells: Xenopus laevis oocytes injected with in vitro transcribed RNA (pOTV vector)
T4 sequence (P43007 1-532): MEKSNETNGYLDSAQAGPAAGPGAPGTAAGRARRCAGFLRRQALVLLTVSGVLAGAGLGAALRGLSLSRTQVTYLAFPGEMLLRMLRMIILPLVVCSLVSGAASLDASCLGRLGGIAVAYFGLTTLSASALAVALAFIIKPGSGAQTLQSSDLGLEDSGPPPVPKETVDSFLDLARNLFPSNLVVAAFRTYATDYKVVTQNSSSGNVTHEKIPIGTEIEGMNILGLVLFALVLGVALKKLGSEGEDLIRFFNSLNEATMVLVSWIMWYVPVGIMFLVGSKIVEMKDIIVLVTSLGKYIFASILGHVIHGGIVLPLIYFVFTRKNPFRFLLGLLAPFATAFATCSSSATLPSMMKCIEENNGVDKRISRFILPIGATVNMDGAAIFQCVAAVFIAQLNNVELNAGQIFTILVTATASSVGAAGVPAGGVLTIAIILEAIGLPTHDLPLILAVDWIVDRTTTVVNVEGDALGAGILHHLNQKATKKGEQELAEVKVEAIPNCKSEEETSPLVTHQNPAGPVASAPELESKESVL
Description: (§5) Following the PCR, the product of the amplification reaction was purified using standard techniques (Saiki et al., 1988, Science 239: 487-491). The DNA then digested with the restriction enzymes KpnI and XbaI and then cloned into the polylinker of an oocyte transcription vector (POTV; see Wang el al., 1991, Nature 352: 729-731) that had been digested with KpnI and XbaI. Synthetic RNA was then transcribed in vitro from this clone using the method of Kavanaugh et al. (1992, J. Biol. Chem. 267: 22007-22009) employing bacteriophage T7 RNA polymerase (New England Biolabs, Beverly, Mass.). 20-50 nL of ASCT1 RNA (at a concentration of about 400 μg/mL) was injected into defolliculated stage V-VI Xenopus oocytes excised from female Xenopus laevis anesthetized by immersion in 3-aminobenzoic acid for 60 min. Excised oocytes were treated with collagenase II (Sigma Chemical Co., St. Louis, Mo.) in calcium-free Barth's saline solution [comprising 88 mM NaCl, 1 mM KCl, 2.4 mM NaHCO3, 0.82 mM MgSO4, 7.5 mM Tris-HCl (pH 7.6), 50 U/mL Nystatin (Sigma) and 0.1 mg/mL gentamycin (Sigma)] for 60 min., and then incubated overnight at 15° C. in 50% Leibowitz's L-15 media (Grand Island Biological Co. (GIBCO), Long Island, N.Y.). After overnight incubation the oocytes were mechanically defolliculated and then were injected with ASCT-1 RNA and incubated at 19° C. for 48 h (see Kim el al., 1991, Nature 352: 725-728 for further details of Xenopus oocyte preparation and microinjection).
(§6) Amino acid transport in such oocytes was assayed using [^3H] alanine, [^3H] serine or [^35S] cysteine (obtained from New England Nuclear, Boston, Mass.). Briefly, microinjected oocytes were […] at −60 mV using a Dagan TEV-200 clamp amplifier with an Axon Instruments (Foster City, Calif.) TL-1 A/D interface controlled by pCLAMP software (Axon Instruments) (see Kavanaugh et al., 1992, J. Biol. Chem. 267: 22007-22009 for a detailed review of this methodology) and continuously superfused with ND-96 buffer (consisting of 96 mM NaCl/2 mM KCl/1.8 mM CaCl2/1 mM MgCl2/5 mM HEPES, pH 7.5). For transport measurements, this solution was changed to a solution containing varying concentrations of the radiolabeled amino acids in ND-96 buffer.
More detailed analyses of ithe kinetics of amino acid influx were performed by least squares linear regression analysis of induced inward current ([I]) plotted as a function of substrate amino acid concentration ([S]), using the equation shown in the legend of Table II.

[2] = target: T4, human ASCT1 neutral amino acid transporter; experiment: radiolabeled amino acid uptake in ASCT1 RNA-injected Xenopus oocytes; details: competitor 10 mM; [3H] alanine 100 μM
Description: as §5, §6

[3] = uptake of 1 μM [3H]-L-glutamate, [S] << Km, Ki does not differ significantly from measured IC50, read-out: Ki, glutamate uptake inhibition constant, EAAT1
[4] = uptake of 1 μM [3H]-L-glutamate, [S] << Km, Ki does not differ significantly from measured IC50, read-out: Ki, glutamate uptake inhibition constant, EAAT2
[5] = uptake of 1 μM [3H]-L-glutamate, [S] << Km, Ki does not differ significantly from measured IC50, read-out: Ki, glutamate uptake inhibition constant, EAAT3
[6] = much higher concentrations (about 1 mM)
[7] = read-out: Ki, glutamate uptake inhibition constant, EAAT1
[8] = read-out: Ki, glutamate uptake inhibition constant, EAAT2
[9] = read-out: Ki, glutamate uptake inhibition constant, EAAT3

SMILES: NC(CC(=O)O)CC(=O)O [β-glutamate]
- Ki (human EAAT1; [3]): 297 ± 118 µM
- Ki (human EAAT2; [4]): 156 ± 37 µM
- Ki (human EAAT3; [5]): 307 ± 48 µM

SMILES: O=C(O)[C@@H]1CCCN1 [proline]
- effect on membrane current of ASCT1-injected oocytes [1, 6]: had no effect

SMILES: N[C@@H](CSS(=O)(=O)O)C(=O)O [S-sulfo-L-cysteine]
- inhibition of glutamate uptake (in words), EAAT1 (human EAAT1): ineffective
- inhibition of glutamate uptake (in words), EAAT2 (human EAAT2): ineffective
- inhibition of glutamate uptake (in words), EAAT3 (human EAAT3): ineffective

SMILES: NC(=O)C[C@H](N)C(=O)O [asparagine]
- effect on membrane current of ASCT1-injected oocytes [1, 6]: had no effect

SMILES: CC(C)[C@H](N)C(=O)O [Valine]
- Imax (maximal current) ([1]; L-stereoisomer, current normalized to the maximum response obtained with L-alanine, mean ± standard error): 0.6 ± 0.11

SMILES: CN[C@@H](C)C(=O)O [N-methylalanine]
- effect on membrane current of ASCT1-injected oocytes [1, 6]: had no effect

SMILES: CC(C)[C@H]1CN[C@H](C(=O)O)[C@H]1CC(=O)O [DHK, dihydrokainate]
- Ki (human EAAT1): > 1000 µM
- Ki (human EAAT2): 23 ± 6 µM
- Ki (human EAAT3): > 1000 µM

SMILES: C[C@@H](N)C(=O)O [D-alanine]
- response relative to the response produced by L-alanine ([1]; stereospecificity): 12±3%

SMILES: CSCC[C@H](N)C(=O)O [methionine]
- effect on membrane current of ASCT1-injected oocytes [1, 6]: had no effect

SMILES: CNC(C)(C)C(=O)O [MAIB, 2-methylaminoisobutyric acid]
- effect on the rate of uptake of [3H] alanine (competition) [2]: had no effect
- effect on membrane current of ASCT1-injected oocytes ([1]; 1 mM): had no effect

SMILES: O=C(O)[C@H]1CN[C@H](C(=O)O)C1 [PDC, L-trans-pyrrolidine-2,4-dicarboxylate]
- Ki (human EAAT1; [7]): 79 ± 7 µM
- Ki (human EAAT2; [8]): 8 ± 2 µM
- Ki (human EAAT3; [9]): 61 ± 14 µM

SMILES: N[C@@H](CS(=O)O)C(=O)O [L-cysteine sulfinic acid]
- Ki (human EAAT1; [7]): 14 ± 7 µM
- Ki (human EAAT2; [8]): 6 ± 1 µM
- Ki (human EAAT3; [9]): 17 ± 2 µM

SMILES: N[C@@H](Cn1oc(=O)[nH]c1=O)C(=O)O [quisqualate]
- inhibition of glutamate uptake (in words), EAAT1 (human EAAT1): ineffective
- inhibition of glutamate uptake (in words), EAAT2 (human EAAT2): ineffective
- inhibition of glutamate uptake (in words), EAAT3 (human EAAT3): ineffective

SMILES: N[C@@H](CS(=O)(=O)O)C(=O)O [L-cysteate]
- Ki (human EAAT1; [3]): 10 ± 3 µM
- Ki (human EAAT2; [4]): 10 ± 2 µM
- Ki (human EAAT3; [5]): 19 ± 9 µM
